Test results from US20230031406A1, “COMPOUNDS AND COMPOSITIONS FOR TREATING CONDITIONS ASSOCIATED WITH NLRP ACTIVITY” (Novartis AG, priority 2018, published 2023).
Read-outs that look alike come from different tables or passages of the source. Values belong to the compound of their own block, whether it stands above or below them.

Tested on: PMA-differentiated THP-1 cells
Assay: hTHP-1 assay containing 10% fetal bovine serum (IL-1β production, Tables B5 and B6)
Format: cell-based, human
Description: The following protocol is suitable for testing the activity of the compounds disclosed herein. Procedure 1: IL-1β Production in PMA-Differentiated THP-1 Cells Stimulated with Gramicidin.
THP-1 cells were purchased from the American Type Culture Collection and sub-cultured according to instructions from the supplier. Cells were cultured in complete RPMI 1640 (containing 10% heat inactivated FBS, penicillin (100 units/ml) and streptomycin (100 μg/ml)), and maintained in log phase prior to experimental setup. Prior to the experiment, compounds were dissolved in dimethyl sulfoxide (DMSO) to generate a 30 mM stock. The compound stock was first pre-diluted in DMSO to 3, 0.34, 0.042 and 0.0083 mM intermediate concentrations and subsequently spotted using Echo550 liquid handler into an empty 384-well assay plate to achieve desired final concentration (e.g. 100, 33, 11, 3.7, 1.2, 0.41, 0.14, 0.046, 0.015, 0.0051, 0.0017 μM). DMSO was backfilled in the plate to achieve a final DMSO assay concentration of 0.37%. The plate was then sealed and stored at room temperature until required.
THP-1 cells were treated with PMA (Phorbol 12-myristate 13-acetate) (20 ng/ml) for 16-18 hours. On the day of the experiment the media was removed and adherent cells were detached with trypsin for 5 minutes. […] The cells were plated in the 384-well assay plate containing the spotted compounds at a density of 50,000 cells/well (final assay volume 50 μl). Cells were incubated with compounds for 1 hour and then stimulated with gramicidin (5 μM) (Enzo) for 2 hours. Plates were then centrifuged at 340 g for 5 min. Cell free supernatant (40 μL) was collected using a 96—CHannel PlateMaster (Gilson) and the production of IL-1β was evaluated by HTRF (cisbio). The plates were incubated for 18 h at 4° C. and read using the preset HTRF program (donor emission at 620 nm, acceptor emission at 668 nm) of the SpectraMax i3x spectrophotometer (Molecular Devices, software SoftMax 6). A vehicle only control and a dose titration of CRID3 (100-0.0017 μM) were run concurrently with each experiment.
Procedure 2: IL-1β Production in PMA-Differentiated THP-1 Cells Stimulated with Gramicidin.
THP-1 cells were purchased from the American Type Culture Collection and sub-cultured according to instructions from the supplier. Prior to experiments, cells were cultured in complete RPMI 1640 (containing 10% heat inactivated FBS, penicillin (100 units/ml) and streptomycin (100 μg/ml)), and maintained in log phase prior to experimental setup. Prior to the experiment THP-1 were treated with PMA (Phorbol 12-myristate 13-acetate) (20 ng/ml) for 16-18 hours. Compounds were dissolved in dimethyl sulfoxide (DMSO) to generate a 30mM stock. On the day of the experiment the media was removed and adherent cells were detached with trypsin for 5 minutes. […] The cells were plated in a 384-well plate at a density of 50,000 cells/well (final assay volume […]). Compounds were first dissolved in assay medium to obtain a 5× top concentration of 500 μM. 10 step dilutions (1:3) were then undertaken in assay medium containing 1.67% DMSO. 5× compound solutions were added to the culture medium to achieve desired final concentration (e.g. 100, 33, 11, 3.7, 1.2, 0.41, 0.14, 0.046, 0.015, 0.0051, 0.0017 μM). Final DMSO concentration was at 0.37%. Cells were incubated with compounds for 1 hour and then stimulated with gramicidin (5 μM) (Enzo) for 2 hours. Plates were then centrifuged at 340 g for 5 min. Cell free supernatant (40 μL) was collected using a 96—CHannel PlateMaster (Gilson) and the production of IL-1β was evaluated by HTRF (cisbio). A vehicle only control and a dose titration of CRID3 (100-0.0017 μM) were run concurrently with each experiment.
Tables B1, B2, B3, and B4 show the biological activity of compounds in hTHP-1 assay containing 2% fetal bovine serum. […] Key: <0.008 μM=“++++++”; ≥0.008 and <0.04 μM=“+++++”; >0.04 and <0.2 μM=“++++”; ≥0.2 and <1 μM=“+++”; ≥1 and <5 μM=“++”; ≥5 and <30 μM=“+”. […]

[1] = Homo sapiens, THP-1, read-out: hTHP-1 IC50 in 10% FBS, hTHP-1 assay containing 10% fetal bovine serum, Table B6
[2] = read-out: hTHP-1 IC50 in 10% FBS, hTHP-1 assay containing 10% fetal bovine serum, Table B6
[3] = Homo sapiens, THP-1, read-out: hTHP-1 IC50 in 10% FBS, hTHP-1 assay containing 10% fetal bovine serum, Table B5

Compound: Cc1c(C(F)(F)F)nc2c(c1NC(=O)N=S(N)(=O)c1nn(C3CC3)cc1F)CCC2 (stereo not shown) [Compound 1114, 1-Cyclopropyl-4-fluoro-N′-((3-methyl-2-(trifluoromethyl)-6,7-dihydro-5H-cyclopenta [b]pyridin-4-yl)carbamoyl)-1H-pyrazole-3-sulfonimidamide]
- IC50 [3]: 0.04 to 0.2 µM

Compound: Cc1c(C(F)(F)F)nc2c(c1NC(=O)N=S(N)(=O)c1cnc(C(F)F)s1)CCC2 (single isomer, unassigned) [Compound 1007b, (S) or (R)-2-(Difluoromethyl)-N′-((3-methyl-2-(trifluoromethyl)-6,7-dihydro-5H-cyclopenta[b]pyridin-4-yl)carbamoyl)thiazole-5-sulfonimidamide]
- IC50 (read-out: hTHP-1 IC50 in 10% FBS, hTHP-1 assay containing 10% fetal bovine serum, Table B5, listed as 828): 5 to 30 µM

Compound: CC(C)n1cc(F)c(S(N)(=O)=NC(=O)Nc2c3c(nc(C(F)(F)F)c2C2CC2)CCC3)n1 (single isomer, unassigned) [Compound 1104b, (S) or (R)-N′-((3-cyclopropyl-2-(trifluoromethyl)-6,7-dihydro-5H-cyclopenta[b]pyridin-4-yl)carbamoyl)-4-fluoro-1-isopropyl-1H-pyrazole-3-sulfonimidamide]
- IC50 (read-out: hTHP-1 IC50 in 10% FBS, hTHP-1 assay containing 10% fetal bovine serum, Table B5, listed as 827): 1 to 5 µM

Compound: CCn1cc(F)c(S(N)(=O)=NC(=O)Nc2c3c(nc(C(F)(F)F)c2-c2ccc(F)c(F)c2)CCC3)n1 (single isomer, unassigned) [Compound 1113a, (S) or (R)-N′-((3-(3,4-difluorophenyl)-2-(trifluoromethyl)-6,7-dihydro-5H-cyclopenta[b]pyridin-4-yl)carbamoyl)-1-ethyl-4-fluoro-1H-pyrazole-3-sulfonimidamide]
- IC50 (read-out: hTHP-1 IC50 in 10% FBS, hTHP-1 assay containing 10% fetal bovine serum, Table B5, listed as 836): 0.2 to 1 µM

Compound: CC(F)(F)n1cc(F)c(S(N)(=O)=NC(=O)Nc2c3c(nc4c2CCC4)CCC3)n1 (single isomer, unassigned) [Compound 1115b, (S) or (R)-1-(1,1-difluoroethyl)-4-fluoro-N′-((1,2,3,5,6,7-hexa-hydrodicyclopenta[b,e]pyridin-8-yl)carbamoyl)-1H-pyrazole-3-sulfonimidamide]
- IC50 (read-out: hTHP-1 IC50 in 10% FBS, hTHP-1 assay containing 10% fetal bovine serum, Table B5, listed as 847): 5 to 30 µM

Compound: Cc1c(C(F)(F)F)nc2c(c1NC(=O)N=S(N)(=O)c1scc(C(C)(C)O)c1F)CCC2 (single isomer, unassigned) [Compound 1108a, (R) or (S)-3-fluoro-4-(2-hydroxypropan-2-yl)-N′-((3-methyl-2-(trifluoromethyl)-6,7-dihydro-5H-cyclopenta[b]pyridin-4-yl)carbamoyl)thiophene-2-sulfonimidamide]
- IC50 (read-out: hTHP-1 IC50 in 10% FBS, hTHP-1 assay containing 10% fetal bovine serum, Table B5, listed as 840): 0.04 to 0.2 µM

Compound: Cc1c(C(F)(F)F)nc2c(c1NC(=O)N=S(N)(=O)c1nn(C(C)(F)F)cc1F)CCC2 (stereo not shown) [Compound 1004, 1-(1,1-Difluoroethyl)-4-fluoro-N′-((3-methyl-2-(trifluoromethyl)-6,7-dihydro-5H-cyclopenta [b]pyridin-4-yl)carbamoyl)-1H-pyrazole-3-sulfonimidamide]
- IC50 [3]: 0.2 to 1 µM

Compound: Cc1nc2c(c(NC(=O)N=S(N)(=O)c3scc(C(C)(C)O)c3F)c1-c1ccccc1)CCC2 (single isomer, unassigned) [Compound 1110a, (S) or (R)-3-fluoro-4-(2-hydroxypropan-2-yl)-N′-((2-methyl-3-phenyl-6,7-dihydro-5H-cyclopenta[b]pyridin-4-yl)carbamoyl)thiophene-2-sulfonimidamide]
- IC50 (read-out: hTHP-1 IC50 in 10% FBS, hTHP-1 assay containing 10% fetal bovine serum, Table B5, listed as 844): 0.2 to 1 µM

Compound: CC(C)(O)c1csc(S(N)(=O)=NC(=O)Nc2c3c(nc(C4CC4)c2C2CC2)CCC3)c1F (single isomer, unassigned) [Compound 1106b, (S) or (R)-N′-((2,3-dicyclopropyl-6,7-dihydro-5H-cyclopenta[b]pyridin-4-yl)carbamoyl)-3-fluoro-4-(2-hydroxypropan-2-yl)thiophene-2-sulfonimidamide]
- IC50 (read-out: hTHP-1 IC50 in 10% FBS, hTHP-1 assay containing 10% fetal bovine serum, Table B5, listed as 831): 1 to 5 µM

Compound: Cc1c(C(F)(F)F)nc2c(c1NC(=O)N=S(N)(=O)c1nn(C(C)(F)F)cc1F)CCC2 (single isomer, unassigned) [Compound 1004b, (S) or (R)-1-(1,1-Difluoroethyl)-4-fluoro-N′-((3-methyl-2-(trifluoromethyl)-6,7-dihydro-5H-cyclopenta[b]pyridin-4-yl)carbamoyl)-1H-pyrazole-3-sulfonimidamide]
- IC50 (read-out: hTHP-1 IC50 in 10% FBS, hTHP-1 assay containing 10% fetal bovine serum, Table B5, listed as 833): 1 to 5 µM

Compound: C[C@@H]1CCc2c1nc1c(c2NC(=O)N=S(N)(=O)c2scc(C(C)(C)O)c2F)CCC1 (single isomer, unassigned) [Compound 1109a, (R) or (S)-3-fluoro-4-(2-hydroxypropan-2-yl)-N′-(((R)-3-methyl-1,2,3,5,6,7-hexahydrodicyclopenta [b,e]pyridin-8-yl)carbamoyl) thiophene-2-sulfonimidamide]
- IC50 (read-out: hTHP-1 IC50 in 10% FBS, hTHP-1 assay containing 10% fetal bovine serum, Table B5, listed as 842): 0.008 to 0.04 µM

Next, values leading:

- IC50 [1]: 0.04 to 0.2 µM
Compound: NS(=O)(=NC(=O)Nc1c2c(nc3c1CCC3)CCC2)c1nn(C2CC2)cc1F (stereo not shown) [Example 858, 1-Cyclopropyl-4-fluoro-N′-((1,2,3,5,6,7-hexahydrodicyclopenta[b,e]pyridin-8-yl)carbamoyl)-1H-pyrazole-3-sulfonimidamide]

- IC50 [1]: 0.008 to 0.04 µM
Compound: C[C@@H]1CCc2c1nc1c(c2NC(=O)N=S(N)(=O)c2nn(C3CC3)cc2F)CCC1 (stereo partly drawn) [Example 855, 1-Cyclopropyl-4-fluoro-N′-(((R)-3-methyl-1,2,3,5,6,7-hexahydrodicyclopenta[b,e]pyridin-8-yl)carbamoyl)-1H-pyrazole-3-sulfonimidamide]

- IC50 [2]: 0.2 to 1 µM
Compound: C[C@@H]1CCc2c1nc1c(c2NC(=O)N=S(N)(=O)c2nn(C3CC3)cc2F)CCC1 (single isomer, unassigned) [Example 868, (S) or (R)-1-cyclopropyl-4-fluoro-N′-(((R)-3-methyl-1,2,3,5,6,7-hexahydrodicyclopenta[b,e]pyridin-8-yl)carbamoyl)-1H-pyrazole-3-sulfonimidamide]

- IC50 (read-out: hTHP-1 IC50 in 10% FBS, hTHP-1 assay containing 10% fetal bovine serum, Table B5, listed as 851): 0.2 to 1 µM
Compound: C[C@@H]1CCc2c1nc1c(c2NC(=O)N=S(N)(=O)c2nn(C(C)(F)F)cc2F)CCC1 (single isomer, unassigned) [Compound 1117b, (S) or (R)-1-(1,1-difluoroethyl)-4-fluoro-N′-(((R)-3-methyl-1,2,3,5,6,7-hexahydrodicyclopenta[b,e]pyridin-8-yl)carbamoyl)-1H-pyrazole-3-sulfonimidamide]

- IC50 [2]: 1 to 5 µM
Compound: Cc1c(C(F)(F)F)nc2c(c1NC(=O)N=S(N)(=O)c1nn(C3CC3)cc1F)CCC2 (single isomer, unassigned) [Example 870, (S) or (R)-1-cyclopropyl-4-fluoro-N′-((3-methyl-2-(trifluoromethyl)-6,7-dihydro-5H-cyclopenta[b]pyridin-4-yl)carbamoyl)-1H-pyrazole-3-sulfonimidamide]
